Each structure is given as a SMILES string.

The target in data set [1] is CGRP receptor ectodomain complex (Homo sapiens (Human), UniProt O60894+Q16602). The experiment in a line: Receptor kinetic profiling by surface plasmon resonance (Biacore T200). Conditions: dissociation half-life, SPR, 25° C. In general terms: Surface plasmon resonance follows binding to a sensor surface in real time, without labels.
Procedure: Kinetic analyses were run on a Biacore T200 instrument (GE Healthcare Bio-Sciences AB, Uppsala, Sweden) at 25° C. using 0.05 mM EDTA, PBS (10 mM phosphate buffer, 2.7 mM KCl, 137 mM NaCl) pH 7.4, 0.005% v/v Surfactant P20, 5% DMSO as the running buffer. […] The chip was loaded with Ni^2+ and carboxyl groups of the dextran matrix were activated by EDC/NHS. The receptor ectodomain complex (100 nM in running buffer) was then injected and immobilised via the His-tag and amino groups. Two fold dilution series of each compound (five concentrations, in the range 25-40 nM) were injected. Blank-subtracted data were fitted to a 1:1 interaction model to obtain kinetic parameters which are expressed in Table 4 as dissociation half-life (t1/2=(ln 2/off-rate (kd)/60).
The target of a further data set is CGRP receptor (Homo sapiens (Human), UniProt O60894+Q16602). Conditions: in words, literature; cited from earlier work.
For data set [2] the following is noted: at 24 h after intravenous infusion of a 2.5 mg dose; cited from earlier work.

Chain of CGRP receptor ectodomain complex (Q16602 23-139): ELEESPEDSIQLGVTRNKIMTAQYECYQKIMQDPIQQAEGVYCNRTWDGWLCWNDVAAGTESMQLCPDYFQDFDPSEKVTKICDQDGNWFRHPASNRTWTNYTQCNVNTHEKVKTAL
Chain of CGRP receptor ectodomain complex (O60894 27-118): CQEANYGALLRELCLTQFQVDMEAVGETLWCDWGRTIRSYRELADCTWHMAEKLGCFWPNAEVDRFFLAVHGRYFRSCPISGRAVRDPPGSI
Chain of CGRP receptor (Q16602 23-461): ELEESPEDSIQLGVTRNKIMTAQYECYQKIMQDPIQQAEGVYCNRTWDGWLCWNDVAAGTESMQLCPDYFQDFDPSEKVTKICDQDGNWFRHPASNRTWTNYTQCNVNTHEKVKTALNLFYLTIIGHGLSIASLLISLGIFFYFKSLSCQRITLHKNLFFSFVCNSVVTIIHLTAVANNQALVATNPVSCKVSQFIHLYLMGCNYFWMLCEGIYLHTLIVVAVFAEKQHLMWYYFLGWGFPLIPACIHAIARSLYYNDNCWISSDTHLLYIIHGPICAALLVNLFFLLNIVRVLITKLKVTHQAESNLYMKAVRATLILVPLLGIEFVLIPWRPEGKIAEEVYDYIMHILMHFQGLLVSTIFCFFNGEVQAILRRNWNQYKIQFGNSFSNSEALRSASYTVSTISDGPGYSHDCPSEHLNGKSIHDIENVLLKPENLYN
Chain of CGRP receptor (O60894 27-148): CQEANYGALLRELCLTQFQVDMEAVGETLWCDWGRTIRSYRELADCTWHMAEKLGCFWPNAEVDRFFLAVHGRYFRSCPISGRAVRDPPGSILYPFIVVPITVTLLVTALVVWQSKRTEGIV

Consider `O=C(CN1C(=O)C2(CCCC2)NC[C@H]1c1cc(F)cc(F)c1)Nc1ccc2c(c1)C[C@@]1(C2)C(=O)Nc2ncccc21` [MK-3207, reference compound], for which, in data set [1], the “CGRP t1/2” value amounted to 27 min. The “kinetics at the CGRP receptor” value on CGRP receptor is recorded as “relatively slow dissociation”.
As for `NCCCC[C@H](NC(=O)[C@@H](Cc1cc(Br)c(O)c(Br)c1)NC(=O)N1CCC(N2Cc3ccccc3NC2=O)CC1)C(=O)N1CCN(c2ccncc2)CC1` [olcegepant], the headache-free rate in data set [2] was 47%. For the same compound, the “CGRP t1/2” value in data set [1] is listed as 30 min. In addition, the “kinetics at the CGRP receptor” value on CGRP receptor is given as “slow kinetics”.

Values taken from US10300056B2, “CGRP receptor antagonists” (Heptares Therapeutics Limited, priority 2015, dated 2019).
